Results from US20220259212A1, “INHIBITORS OF INDOLEAMINE 2,3-DIOXYGENASE AND/OR TRYPTOPHAN 2,3-DIOXYGENASE” (Idorsia Pharmaceuticals Ltd, priority 2019, published 2022).

How the values were obtained:
IDO1 in SKOV3 cells = molecular target: T1, IDO1 in SKOV3 cells (Homo sapiens, UniProt P14902); assay: Cell-based IDO inhibitory activity in IFNγ-stimulated SKOV3 cells (NFK + kynurenine by LCMS); conditions: IFNγ 50 ng/ml, 200 uM L-tryptophan, 24 hours
T1 construct: SKOV3 cells (NCI, No. 0503405) which upregulate IDO1 after stimulation with IFNγ; host or cells: SKOV3 cells stimulated with IFNγ
Description: 3) Testing Compounds for IDO/TDO Inhibitory Activity and Toxicity in Cell-Based Assays
SW48 cells (ATCC, CCL-231) are used to measure compounds for TDO inhibitory activity and are routinely maintained in DMEM high glucose/GlutaMAX™/pyruvate 90% (v/v), FCS 10% (v/v), Penicilin/streptomycin 1% (v/v). SKOV3 cells (NCI, No. 0503405) which upregulate IDO1 after stimulation with IFNγ are used to measure compounds for IDO inhibitory activity. SKOV3 cells are routinely maintained in RPMI 90% (v/v), FCS 10% (v/v), Penicilin/streptomycin 1% (v/v). SW48 or SKOV3 cells are seeded in 384 well plates at a density of 8000 cells in 45 ul per well or 4000 cells in 45 ul per well, respectively. Plates are incubated at 37° C./5% CO2 for 24 hours. On the next day, 10 ul compound in serial dilutions (tested concentration range 10 uM-40 nM) and 200 uM L-tryptophan are added (SKV03 receive in addition IFNγ at a final concentration of 50 ng/ml). After 24 hours of incubation at 37° C./5% CO2, 3 ul of the supernatant per well is transferred to 25 ul H2O per well in a 384 deep well plate and 25 ul of the supernatant per well is transferred to waste. The SKOV3 and SW48 cell plates with 25 ul supernatant per well remaining are used to measure viability (see below). The 384 deep well plate containing 3 ul supernatant and 25 ul H2O per well are further processed for LCMS: After the addition of 100 ul L-tryptophan-(indole-d5) (Sigma 615862) at 200 nM in methanol, the 384 deep well plates are centrifuged for 10 minutes at 3220×g at 4° C., 75 ul H2O is added per well and plates centrifuged again for 10 minutes at 3220×g at 4° C. N-formylkynurenine and kynurenine are quantified by LCMS, normalized to the internal standard L-tryptophan-(indole-d5) and the sum is calculated. Samples with 0.2% DMSO (0% effect) and a TDO/IDO inhibitor (100% effect) are used as control samples to set the parameters for the non-linear regression necessary for the determination of the IC50 for each compound. For each compound concentration the percentage of activity compared to 0% and 100% effect is calculated as average±STDEV (each concentration measured in duplicate). IC50 values and curves are generated with XLfit software (IDBS) using Dose-Response One Site model 203. The calculated IC50 values may fluctuate depending on the daily cellular assay performance. Fluctuations of this kind are known to those skilled in the art. When compounds are measured multiple times, mean values are given.

[1] = molecular target: T2, Recombinant full-length human IDO1 (Homo sapiens, UniProt P14902); assay: IDO1 enzymatic assay (NFK quantified by LCMS); assay type: biochemical; conditions: 2 nM enzyme, 5 μM L-tryptophan, 30 min pre-incubation, pH6.5; mean if measured multiple times; read-out: hIDO activity (IC50 in nM)
T2 construct: Recombinant full-length human IDO1 with a N-terminal hexahistidine tag; hexahistidine (N); made in house; host or cells: E. coli
Description: 1) Testing Compounds for IDO Inhibitory Activity in an IDO1 Enzymatic Assay:
Recombinant full-length human IDO1 with a N-terminal hexahistidine tag expressed in E. coli and purified to homogeneity is incubated at a final concentration of 2 nM in assay buffer consisting of 37.5 mM phosphate buffer at pH6.5 supplemented with 10 mM ascorbic acid, 0.45 μM methylene blue, 50 U/ml catalase, 0.01% BSA, and 0.01% Tween 20 (protocol modified from Seegers et al, JBS 2014). Example compounds are serially diluted in DMSO, further diluted in phosphate buffer, and added to the enzyme at final concentrations ranging from 10 μM to 0.5 nM. The final DMSO concentration is 0.6%. Following a pre-incubation of 30 minutes at RT, the reaction is started by the addition of L-tryptophan at a final concentration of 5 μM in assay buffer. After 30 minutes of incubation at RT, 3 μL of the 20 μl reaction mixture are transferred to a 384 deep well plate containing 25 μL of deionized water. 100 μl of 200 nM L-Tryptophan-(indole-d5) in cold 100% methanol are added followed by a 10 minutes centrifugation at 3220×g at 4° C. An additional 75 μL of deionized water are then added followed by a 10 minutes centrifugation at 3220×g at 4° C. The product of the reaction N′-Formylkynurenine (NFK) is quantified by LCMS and normalized to the L-Tryptophan-(indole-d5) signal. Samples with 0.6% DMSO (0% effect) and a TDO/IDO inhibitor (100% effect) are used as control samples to set the parameters for the non-linear regression necessary for the determination of the half-maximal inhibitory concentration (IC50) for each compound. For each compound concentration the percentage of activity compared to 0% and 100% effect is calculated as average±STDEV (each concentration measured in duplicate). IC50 values and curves are generated with XLfit software (IDBS) using Dose-Response One Site model 203 (four parameter logistic curve model). The calculated IC50 values may fluctuate depending on the daily assay performance. Fluctuations of this kind are known to those skilled in the art. When compounds are measured multiple times, mean values are given.

[2] = molecular target: T3, Recombinant human TDO comprising amino acids 19-407 (Homo sapiens, UniProt P48775); assay: TDO2 enzymatic assay (NFK quantified by LCMS); assay type: biochemical; conditions: 15 nM enzyme, 200 μM L-tryptophan, 30 min pre-incubation, pH7; mean if measured multiple times; read-out: hTDO activity (IC50 in nM)
T3 construct: human TDO comprising amino acids 19-407; hexahistidine (N); made in house; host or cells: E. coli
Description: 2) Testing Compounds for TDO Inhibitory Activity in a TDO2 Enzymatic Assay:
Recombinant human TDO comprising amino acids 19-407 with a N-terminal hexahistidine tag expressed in E. coli and purified to homogeneity is incubated at a final concentration of 15 nM in assay buffer consisting of 75 mM phosphate buffer at pH7 supplemented with 100 μM ascorbic acid, 50 U/ml Catalase, 0.01% BSA, and 0.01% Tween 20 (protocol modified from Seegers et al, JBS 2014). Example compounds are serially diluted in DMSO, further diluted in phosphate buffer, and added to the reaction mixture at final concentrations ranging from 10 μM to 0.5 nM. The final DMSO concentration is 0.6%. Following a pre-incubation of 30 minutes at RT, the reaction is started by the addition of L-tryptophan at a final concentration of 200 μM in assay buffer. After 30 minutes of incubation at RT, 3 μL of the reaction mixture are transferred to a 384 deep well plate containing 25 μL of deionized water. 100 μl of 200 nM L-Tryptophan-(indole-d5) in cold 100% methanol are added followed by a 10 minutes centrifugation at 3220×g at 4° C. An additional 75 μL of deionized water are then added followed by a 10 minutes centrifugation at 3220×g at 4° C. The product of the reaction N′-Formylkynurenine (NFK) is quantified by LCMS and normalized to the L-Tryptophan-(indole-d5) signal. Samples with 0.6% DMSO (0% effect) and a TDO/IDO inhibitor (100% effect) are used as control samples to set the parameters for the non-linear regression necessary for the determination of the half-maximal inhibitory concentration (IC50) for each compound. For each compound concentration the percentage of activity compared to 0% and 100% effect is calculated as average±STDEV (each concentration measured in duplicate). IC50 values and curves are generated with XLfit software (IDBS) using Dose-Response One Site model 203 (four parameter logistic curve model). The calculated IC50 values may fluctuate depending on the daily assay performance. Fluctuations of this kind are known to those skilled in the art. When compounds are measured multiple times, mean values are given.

T3 sequence (P48775 19-406 limits assumed): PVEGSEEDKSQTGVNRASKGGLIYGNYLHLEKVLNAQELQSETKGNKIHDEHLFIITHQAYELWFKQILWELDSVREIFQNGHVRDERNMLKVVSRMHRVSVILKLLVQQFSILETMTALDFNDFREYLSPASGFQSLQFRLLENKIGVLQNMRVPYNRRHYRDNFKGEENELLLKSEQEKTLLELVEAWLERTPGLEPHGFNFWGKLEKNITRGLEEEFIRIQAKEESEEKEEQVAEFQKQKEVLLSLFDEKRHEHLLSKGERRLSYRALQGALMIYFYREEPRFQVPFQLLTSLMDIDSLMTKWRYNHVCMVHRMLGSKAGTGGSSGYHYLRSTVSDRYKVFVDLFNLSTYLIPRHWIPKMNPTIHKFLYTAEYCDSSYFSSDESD
T2 sequence (P14902 whole entry): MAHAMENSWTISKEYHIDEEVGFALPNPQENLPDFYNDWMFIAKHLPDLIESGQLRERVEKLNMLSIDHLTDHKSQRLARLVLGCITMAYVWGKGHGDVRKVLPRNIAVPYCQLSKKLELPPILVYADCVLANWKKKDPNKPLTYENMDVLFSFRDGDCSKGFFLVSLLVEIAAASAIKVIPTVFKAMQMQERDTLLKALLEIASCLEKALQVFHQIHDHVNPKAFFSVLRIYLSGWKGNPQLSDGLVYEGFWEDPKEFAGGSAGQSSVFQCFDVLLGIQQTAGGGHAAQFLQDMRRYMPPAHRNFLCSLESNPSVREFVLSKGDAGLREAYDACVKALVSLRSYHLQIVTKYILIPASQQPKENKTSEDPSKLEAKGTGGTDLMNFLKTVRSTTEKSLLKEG
T1 sequence (P14902 whole entry): as above

| SMILES | IC50 (IDO1 in SKOV3 cells) | IC50 [1] | IC50 [2] |
| --- | --- | --- | --- |
| OC(c1cn(-c2ccc(OCC3(F)COC3)cc2)nn1)c1c(C2CC2)ccc2cncn12 (racemic) [Example 19, rac-(6-Cyclopropyl-imidazo[1,5-a]pyridin-5-yl)-{1-[4-(3-fluoro-oxetan-3-ylmethoxy)-phenyl]-1H-[1,2,3]triazol-4-yl}-methanol] | 11.6 nM | 13.7 nM | > 10200 nM |
| CCc1ncc2cncn2c1C(O)c1cn(-c2cc(F)c(OC)cc2F)nn1 (racemic) [Example 32, rac-[1-(2,5-Difluoro-4-methoxy-phenyl)-1H-[1,2,3]triazol-4-yl]-(6-ethyl-imidazo[1,5-a]pyrazin-5-yl)-methanol] | 70.2 nM | 14.3 nM | > 10200 nM |
| CCc1ccc2cncn2c1C(O)c1cn(-c2ccc(OC)cc2)nn1 (racemic) [Example 34, rac-(6-Ethyl-imidazo[1,5-a]pyridin-5-yl)-[1-(4-methoxy-phenyl)-1H-[1,2,3]triazol-4-yl]-methanol] | 14.5 nM | 2.97 nM | > 10200 nM |
| CCc1ccc2cncn2c1C(O)c1cn(-c2cc(F)c(OC)cc2F)nn1 (racemic) [Example 35, rac-[1-(2,5-Difluoro-4-methoxy-phenyl)-1H-[1,2,3]triazol-4-yl]-(6-ethyl-imidazo[1,5-a]pyridin-5-yl)-methanol] | 3.05 nM | 3.39 nM | > 10200 nM |
| CCc1c(C(O)c2c(Cl)ccc3cncn23)nnn1-c1ccc(OC)cc1 (racemic) [Example 37, rac-(6-Chloro-imidazo[1,5-a]pyridin-5-yl)-[5-ethyl-1-(4-methoxy-phenyl)-1H-[1,2,3]triazol-4-yl]-methanol] | 39 nM | 5.28 nM | 6640 nM |
| COc1cc(F)c(-n2nnc(C(O)c3c(Cl)ccc4cncn34)c2C)cc1Cl (racemic) [Example 39, rac-[1-(5-Chloro-2-fluoro-4-methoxy-phenyl)-5-methyl-1H-[1,2,3]triazol-4-yl]-(6-chloro-imidazo[1,5-a]pyridin-5-yl)-methanol] | 6.94 nM | 5.26 nM | 7940 nM |
| Cc1c(C(O)c2c(Cl)ccc3cncn23)nnn1-c1ccc(O)c(Cl)c1 (racemic) [Example 43, rac-2-Chloro-4-{4-[(6-chloro-imidazo[1,5-a]pyridin-5-yl)-hydroxy-methyl]-5-methyl-[1,2,3]triazol-1-yl}-phenol] | 64.2 nM | 3.88 nM | 832 nM |
| Cc1c(C(O)c2c(Cl)ccc3cncn23)nnn1-c1ccc(O)c(F)c1 (racemic) [Example 48, rac-4-{4-[(6-Chloro-imidazo[1,5-a]pyridin-5-yl)-hydroxy-methyl]-5-methyl-[1,2,3]triazol-1-yl}-2-fluoro-phenol] | 29 nM | 2.29 nM | 1460 nM |
| Oc1ccc(-n2cc(C(O)c3c(C4CC4)ccc4cncn34)nn2)cc1Cl (single isomer, unassigned) [Example 7a] | 4.84 nM | 2.12 nM | > 10200 nM |

The next lines start with the values.

| IC50 (IDO1 in SKOV3 cells) | IC50 [1] | IC50 [2] | SMILES |
| --- | --- | --- | --- |
| 14.5 nM | 2.78 nM | 5260 nM | COc1ccc(-n2nnc(C(O)c3c(Cl)ccc4cncn34)c2C)cc1 (racemic) [Example 20, rac-(6-Chloro-imidazo[1,5-a]pyridin-5-yl)-[1-(4-methoxy-phenyl)-5-methyl-1H-[1,2,3]triazol-4-yl]-methanol] |
| 86 nM | 5.43 nM | 4710 nM | Cc1c(C(O)c2c(Cl)ccc3cncn23)nnn1-c1ccccc1 (racemic) [Example 38, rac-(6-Chloro-imidazo[1,5-a]pyridin-5-yl)-(5-methyl-1-phenyl-1H-[1,2,3]triazol-4-yl)-methanol] |
| 2940 nM | 433 nM | > 10200 nM | OC(c1ccn(-c2ccccc2)n1)c1c(Cl)ccc2cncn12 (racemic) [Ref2, rac-(6-Chloro-imidazo[1,5-a]pyridin-5-yl)-(1-phenyl-1H-pyrazol-3-yl)-methanol, reference compound] |
| > 10000 nM | 161 nM | 8920 nM | OC(c1cnn(-c2ccccc2)n1)c1c(Cl)ccc2cncn12 (racemic) [Ref3, rac-(6-Chloro-imidazo[1,5-a]pyridin-5-yl)-(2-phenyl-2H-[1,2,3]triazol-4-yl)-methanol, reference compound] |
| 8830 nM | 275 nM | 8650 nM | OC(c1ccc(-c2ccccc2)s1)c1c(Cl)ccc2cncn12 (racemic) [Ref4, rac-(6-Chloro-imidazo[1,5-a]pyridin-5-yl)-(5-phenyl-thiophen-2-yl)-methanol, reference compound] |
| 193 nM | 5.07 nM | 9110 nM | O[C@@H](c1cn(-c2ccccc2)nn1)c1c(Cl)ccc2cncn12 [Example 1a, (R)-(6-Chloro-imidazo[1,5-a]pyridin-5-yl)-(1-phenyl-1H-[1,2,3]triazol-4-yl)-methanol] |
